In patent publication US20110144022A1, “Anti-Angiogenic Peptide” (ISTITUTO NAZIONALE PER LA RICERCA SUL CANCRO, priority 2004, published 2011):

Tests used:
[1] = system: angiogenesis; assay: Matrigel sponge in vivo angiogenesis assay; design: species or system C57B1 mice; conditions: for effect of anti IL-12 antibody on the anti-angiogenic activity: neutralizing anti mouse IL-12 antibody added to the matrigel mixture
Protocol: the assay was performed in C57B1 mice as described (3).
To verify whether IL-12 was a mediator of AST function, a neutralizing anti mouse IL-12 antibody (Peproteck Inc. London) and respectively an irrelevant anti phage 13 antibody (5 prime, 3 prime Inc. Boulder, Co. 150 ng/ml) were added to the mixture.
After animal sacrifice, pellets were fixed in 4% PAF and paraffin embedded; […] sections were stained with hematoxylin-eosin standard procedure.
FIG. 1-b: matrigel in vivo angiogenesis assay with AST. Columns show means and standard error of groups comprising six animals each. KS-conditioned medium (KSCM) is the stimulus (control).
FIG. 1-c: matrigel in vivo angiogenesis assay with peptides.
A combination of peptides and anti IL-12 Ab was added to the samples containing KSCM as indicated.
FIG. 2, a-h: standard ematoxylin-eosin staining of the matrigel pellets relative to experiments in FIG. 1-c.

[2] = system: polymorphonucleate (PMN); assay: Neutrophil (PMN) chemotaxis assay with IL-8 as chemoattractant; type: cell-based; conditions: CXCR1 and CXCR2-agonist and IL8 as chemoattractants
Protocol: The assay was conducted in 48 wells chambers (Costar Nucleopore, Milan, Italy) according to Falk (4). The lower compartment of each chamber was filled with 27 μL of chemoattractant (IL-8, 50 ng/ml) in RPMI 0.1% BSA (SFM). Serum-free medium (SFM) was used for spontaneous migration without stimulus. The upper compartment was filled with 50 μL of polymorphonucleate (PMN) suspension in SFM (3×10^6 cells/ml); each experimental point was performed in sextuplicate. Chambers were incubated at 37° C. in 5% CO2 in humidified atmosphere for 45 minutes. Filters were removed and the cells fixed in 100% ethanol and stained with toluidine blue. The migrated cells were quantified by scanning of the filter surface and by densitometry of blue staining by NIH Imaging Analysis Software.
FIG. 3: PMN chemotaxis. Densitometry of migrated cells. IL-8 represents the stimulus in each sample, to which either AST or relevant peptides are added.

[3] = system: KS-imm cells; assay: Xenotransplant of Kaposi sarcoma (KS-imm) tumor cells in nude mice; type: in vivo, CD1 nude mice; conditions: single administration three days before cell injection
Protocol: CD1 nude mice were injected in the flank with 5 million KS-imm cells and split in four groups: one was injected peri-tumorally with 2.5 μg AST (Calbiochem, La Jolla, Calif.) in 100 μl PBS-BSA, a control group was injected with vehicle alone, a third group with 2.5 mg of peptide SEQ ID NO:1 or a control peptide. Mice were sacrificed at day 31.

Substance	anti-angiogenic activity in matrigel sponges (hemoglobin quantification) ([1]; KS-conditioned medium (KSCM) as stimulus, compared with angiostatin)	angiogenesis inhibition by hematoxylin-eosin stain of matrigel pellets ([1]; histology of matrigel sponges)	local cellular infiltration in matrigel pellets ([1]; histology of matrigel sponges)	effect of anti IL-12 antibody on the anti-angiogenic activity [1]	activity in neutrophil chemotaxis assay (inhibition of migration) [2]	tumor growth [3]
HNRTPENFPCKNL (listed as Homo sapiens) [peptide SEQ ID NO:1, 13mer from Kringle 3 of angiostatin, starting from position 307 of human plasminogen]	more active than angiostatin	potent angiogensis inhibition	drastically reduced	inhibited by and antibody anti IL-12	significantly higher compared to other angiostatin peptides	able to diminish tumor growth with respect to angiostatin
angiostatin				inhibited by and antibody anti IL-12		
